Molecules are shown by their SMILES.

The target in the first experiment is T1, P2X purinoceptor 7 (Homo sapiens, UniProt Q99572).
T1 sequence (Q99572 whole entry): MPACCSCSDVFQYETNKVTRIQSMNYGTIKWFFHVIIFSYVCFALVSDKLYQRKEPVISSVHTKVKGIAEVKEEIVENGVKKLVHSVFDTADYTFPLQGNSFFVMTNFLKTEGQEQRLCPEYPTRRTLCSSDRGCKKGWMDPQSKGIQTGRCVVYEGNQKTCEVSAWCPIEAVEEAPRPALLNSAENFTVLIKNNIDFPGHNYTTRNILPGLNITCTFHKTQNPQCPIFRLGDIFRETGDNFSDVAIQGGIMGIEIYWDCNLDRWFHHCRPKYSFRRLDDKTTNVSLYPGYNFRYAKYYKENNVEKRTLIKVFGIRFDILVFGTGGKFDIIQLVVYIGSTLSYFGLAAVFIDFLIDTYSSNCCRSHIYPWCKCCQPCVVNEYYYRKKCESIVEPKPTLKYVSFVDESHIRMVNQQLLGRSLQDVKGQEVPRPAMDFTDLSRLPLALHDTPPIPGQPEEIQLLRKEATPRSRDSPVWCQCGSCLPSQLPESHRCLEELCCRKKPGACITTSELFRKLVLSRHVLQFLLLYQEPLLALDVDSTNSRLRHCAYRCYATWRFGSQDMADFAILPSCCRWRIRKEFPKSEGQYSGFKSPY
Description: Antagonist activity at P2X7 receptor in human THP1 cells assessed as inhibition of BzATP-induced YO-PRO-1 Iodide uptake measured every 30 secs for 1 hr by fluorescence assay.
Details: not given
In kind it is cell-based.
As for `N=C(NCC12CC3CC(CC(C3)C1)C2)Nc1ccccc1`, the IC50 entry is “Nd(Insoluble)”.

The experiment is the same for the next values; noted with them: read-out: IC50.
Take `O=C(NCc1ccccc1)NCC12CC3CC(CC(C3)C1)C2`: the 50% inhibitory concentration (IC50) came to 4.54 µM.

As to `O=C(NCc1cccnc1)NCC12CC3CC(CC(C3)C1)C2`, the IC50 worked out at 3.38 µM.

Turning to `S=C(NCC12CC3CC(CC(C3)C1)C2)Nc1ccccc1`, the IC50 turned out to be 2.42 µM.

Take `N=C(NCc1ccccc1)NCC12CC3CC(CC(C3)C1)C2`: the IC50 is > 10 µM.

`O=C(NCc1ccccn1)NCC12CC3CC(CC(C3)C1)C2`: the IC50 was 5.95 µM.

With `O=C(NCC12CC3CC(CC(C3)C1)C2)Nc1ccccc1`, the IC50 is 4.96 µM.

For `O=C(NCc1ccncc1)NCC12CC3CC(CC(C3)C1)C2`, the IC50 was found to be 6.75 µM.

With `S=C(NCc1ccccc1)NCC12CC3CC(CC(C3)C1)C2`, the IC50 is 4.24 µM.

With `O=C(NCCc1ccccc1)NCC12CC3CC(CC(C3)C1)C2`, the IC50 worked out at 6.41 µM.

What is called IC50 is the point on the concentration scale where inhibition reaches its midpoint.

Values taken from ChEMBL document CHEMBL4028825, “Pharmacological evaluation of a novel series of urea, thiourea and guanidine derivatives as P2X7 receptor antagonists” (Bioorg Med Chem Lett, 2017).
